# Measured values reported in patent US20100029657A1, “Bridged, Bicyclic Heterocyclic or Spiro Bicyclic Heterocyclic Derivatives of Pyrazolo[1, 5-A]Pyrimidines, Methods for Preparation and Uses Thereof” (Wyeth, priority 2008, published 2010).
# Counter-ions that a name gives are not always drawn.
# Molecular target: T1, Flag/GST-tagged recombinant human B-Raf (Homo sapiens, UniProt P15056)
# T1 construct: Flag; GST; made in house; host or cells: Sf9 insect cells (B-Raf); E. coli (MEK1-GST)
# Assay: B-Raf kinase assay (phosphorylation of GST-MEK1, phospho-MEK1 antibody/Europium detection)
# Format: biochemical
# Settings: B-Raf IC50 Data for compounds of Formula A; read-out: Mean IC50
# In short: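 Active B-Raf (0.2 nM) phosphorylates GST-MEK1 in 20 mM MOPS pH 7.2 buffer with DTT, vanadate and 0.01% Triton X-100. The Mg/ATP cocktail (200 μM ATP, 40 mM MgCl2) is added, then incubation runs 45 min at RT. Product is captured on anti-GST plates and detected by anti-phospho-MEK1 plus Europium-anti-rabbit fluorescence, giving % inhibition per concentration.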
# T1 sequence (P15056 whole entry): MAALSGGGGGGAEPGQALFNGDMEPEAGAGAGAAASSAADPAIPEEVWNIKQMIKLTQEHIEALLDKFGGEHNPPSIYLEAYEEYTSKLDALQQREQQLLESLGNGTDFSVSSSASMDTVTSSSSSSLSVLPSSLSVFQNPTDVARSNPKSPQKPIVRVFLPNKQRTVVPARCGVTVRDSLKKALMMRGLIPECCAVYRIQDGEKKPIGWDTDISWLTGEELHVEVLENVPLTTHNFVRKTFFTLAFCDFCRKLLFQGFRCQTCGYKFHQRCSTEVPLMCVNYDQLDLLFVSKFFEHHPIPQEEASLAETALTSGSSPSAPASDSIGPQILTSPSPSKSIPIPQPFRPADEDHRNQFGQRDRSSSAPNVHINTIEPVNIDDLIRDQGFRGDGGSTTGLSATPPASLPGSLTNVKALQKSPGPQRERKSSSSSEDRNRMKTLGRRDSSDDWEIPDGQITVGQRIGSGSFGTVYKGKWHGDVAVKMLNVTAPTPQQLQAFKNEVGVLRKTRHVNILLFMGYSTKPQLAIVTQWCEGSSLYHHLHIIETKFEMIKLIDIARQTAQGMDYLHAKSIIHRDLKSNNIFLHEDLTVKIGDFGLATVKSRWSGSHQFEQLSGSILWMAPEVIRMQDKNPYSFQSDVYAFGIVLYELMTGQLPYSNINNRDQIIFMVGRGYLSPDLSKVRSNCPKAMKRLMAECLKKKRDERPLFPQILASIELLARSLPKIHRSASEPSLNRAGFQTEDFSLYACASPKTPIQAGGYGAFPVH
row,Molecule,IC50 [µM]
1,"CCN1C2CCC1CC(c1ccnc3c(-c4ccc5cc[nH]c5c4)c(-c4ccncc4)nn13)C2 (centres unmarked) [Example 87, 7-(8-Ethyl-8-azabicyclo[3.2.1]oct-3-yl)-3-(1H-indol-6-yl)-2-pyridin-4-ylpyrazolo[1,5-a]pyrimidine]",0.032
2,"Fc1ccc(-c2c(-c3ccncc3)nn3c2nccc3[C@H]2CC[C@@H](N3C[C@@H]4C[C@H]3CO4)CC2)c2cn[nH]c12 [Example 177, 3-(7-fluoro-1H-indazol-4-yl)-7-{cis-4-[(1S,4S)-2-oxa-5-azabicyclo[2.2.1]hept-5-yl]cyclohexyl}-2-pyridin-4-ylpyrazolo[1,5-a]pyrimidine]",0.004
3,"Fc1cc(CN2C3COCC2COC3)ccc1-c1ccnc2c(-c3cccc4[nH]ncc34)c(-c3ccncc3)nn12 [Example 210, 9-{3-fluoro-4-[3-(1H-indazol-4-yl)-2-pyridin-4-ylpyrazolo[1,5-a]pyrimidin-7-yl]benzyl}-3,7-dioxa-9-azabicyclo[3.3.1]nonane]",0.0007
4,"c1cc(-c2c(-c3ccncc3)nn3c(-c4ccc(CN5C[C@@H]6C[C@H]5CN6)s4)ccnc23)c2cn[nH]c2c1 [Example 198, 7-{5-[(1S,4S)-2,5-diazabicyclo[2.2.1]hept-2-ylmethyl]thiophen-2-yl}-3-(1H-indazol-4-yl)-2-pyridin-4-ylpyrazolo[1,5-a]pyrimidine]",0.0036
5,"c1cc(-c2c(-c3ccncc3)nn3c(-c4coc(CN5C[C@@H]6C[C@H]5CN6)c4)ccnc23)c2cn[nH]c2c1 [Example 195, 7-{5-[(1S,4S)-2,5-diazabicyclo[2.2.1]hept-2-ylmethyl]furan-3-yl}-3-(1H-indazol-4-yl)-2-pyridin-4-ylpyrazolo[1,5-a]pyrimidine]",0.013
6,"Ethyl 3-[3-(2-oxo-2,3-dihydro-1H-pyrrolo[2,3-b]pyridin-4-yl)-2-pyridin-4-ylpyrazolo[1,5-a]pyrimidin-7-yl-8-azabicyclo[3.2.1]octane-8-carboxylate [Example 86]",0.27
7,"CC(=O)Oc1cc(-c2c(-c3ccncc3)nn3c(C4CC5CCC(C4)N5C(C)=O)ccnc23)ccc1Cl (centres unmarked) [Example 15, 5-[7-(8-Acetyl-8-azabicyclo[3.2.1]oct-3-yl)-2-pyridin-4-ylpyrazolo[1,5-a]pyrimidin-3-yl]-2-chlorophenyl acetate]",0.01
8,"COc1cc(-c2c(-c3ccncc3)nn3c(-c4ccc(N5C[C@@H]6C[C@H]5CN6)cc4)ccnc23)ccc1Cl [Example 31, 7-(4-((1S,4S)-2,5-Diaza-bicyclo[2.2.1]heptan-2-yl)phenyl)-3-(4-chloro-3-methoxyphenyl)-2-(pyridin-4-yl)pyrazolo[1,5-a]pyrimidine]",0.0018
9,"CCN1C2CCC1CC(c1ccnc3c(-c4ccnc(O)c4)c(-c4ccncc4)nn13)C2 (centres unmarked) [Example 21, 4-(7-(8-Ethyl-8-azabicyclo[3.2.1]octan-3-yl)-2-(pyridin-4-yl)pyrazolo[1,5-a]pyrimidin-3-yl)pyridin-2-ol]",> 1
10,"CCN1C2CCC1CC(c1ccnc3c(-c4ccc(N)cc4)c(-c4ccncc4)nn13)C2 (centres unmarked) [Example 22, 4-(7-(8-Ethyl-8-azabicyclo[3.2.1]octan-3-yl)-2-(pyridin-4-yl)pyrazolo[1,5-a]pyrimidin-3-yl)aniline]",> 1
11,"COc1cc(-c2c(-c3ccncc3)nn3c(-c4ccc(NC5CN6CCC5CC6)nc4)ccnc23)ccc1Cl [Example 5, 5-(7-{6-[(3R)-1-Azabicyclo[2.2.2]oct-3-ylamino]pyridin-3-yl}-3-(4-chloro-3-methoxyphenyl)-2-pyridin-4-ylpyrazolo[1,5-a]pyrimidine]",0.006
12,"Clc1ccc(-c2c(-c3ccncc3)nn3ccc(-c4ccc(N5C[C@@H]6C[C@H]5CN6)cc4)nc23)c2cn[nH]c12 [Example 139, 3-(7-chloro-1H-indazol-4-yl)-5-{4-[(1S,4S)-2,5-diazabicyclo[2.2.1]hept-2-yl]phenyl}-2-pyridin-4-ylpyrazolo[1,5-a]pyrimidine]",0.0012
13,"COc1cccc(-c2c(-c3ccncc3)nn3c(-c4ccc(N5C[C@@H]6C[C@H]5CN6)cc4)ccnc23)c1 [Example 28, 7-[4-((1S,4S)-2,5-Diaza-bicyclo[2.2.1]hept-2-yl)-phenyl]-3-(3-methoxy-phenyl)-2-pyridin-4-yl-pyrazolo[1,5-a]pyrimidine]",0.016
14,"CCOC(=O)N1[C@@H]2CC[C@H]1C[C@@H](c1c(C)cnc3c(-c4cccc5[nH]ncc45)c(-c4ccncc4)nn13)C2 [Example 199, ethyl (3-endo)-3-[3-(1H-indazol-4-yl)-6-methyl-2-pyridin-4-ylpyrazolo[1,5-a]pyrimidin-7-yl]-8-azabicyclo[3.2.1]octane-8-carboxylate]",0.0055
15,Oc1cccc(-c2c(-c3ccncc3)nn3c(NCC45CCN(CC4)CC5)ccnc23)c1 [Example 6],0.057
16,"C1=C(c2ccnc3c(-c4cccc5[nH]ncc45)c(-c4ccncc4)nn23)CCC2(C1)OCCO2 [Example 191, 7-(1,4-dioxaspiro[4.5]dec-7-en-8-yl)-3-(1H-indazol-4-yl)-2-pyridin-4-ylpyrazolo[1,5-a]pyrimidine]",0.0561
17,"FC(F)(F)c1cc(N2C[C@@H]3C[C@H]2CN3)ccc1-c1ccnc2c(-c3cccc4[nH]ncc34)c(-c3ccncc3)nn12 [Example 186, 7-{4-[(1S,4S)-2,5-diazabicyclo[2.2.1]hept-2-yl]-2-(trifluoromethyl)phenyl}-3-(1H-indazol-4-yl)-2-pyridin-4-ylpyrazolo[1,5-a]pyrimidine]",0.0011
18,"CC(C)(C)OC(=O)N1C[C@@H]2C[C@H]1CN2Cc1ccc(-c2ccnc3c(-c4cccc5[nH]ncc45)c(-c4ccncc4)nn23)cc1 [Example 203, tert-butyl (1S,4S)-5-{4-[3-(1H-indazol-4-yl)-2-pyridin-4-ylpyrazolo[1,5-a]pyrimidin-7-yl]benzyl}-2,5-diazabicyclo[2.2.1]heptane-2-carboxylate]",0.012
19,"OCCN1C2CCC1CC(c1ccnc3c(-c4cccc5[nH]ncc45)c(-c4ccncc4)nn13)C2 (centres unmarked) [Example 112, 2-{3-[3-(1H-indazol-4-yl)-2-pyridin-4-ylpyrazolo[1,5-a]pyrimidin-7-yl]-8-azabicyclo[3.2.1]oct-8-yl}ethanol]",0.0228

# Now from value to molecule:
row,IC50 [µM],Molecule
1,0.0253,"CN1C[C@@H]2C[C@H]1CN2c1ccc(-c2ccnc3c(-c4cccc5[nH]ncc45)c(-c4ccncc4)nn23)c2ccccc12 [Example 160, 3-(1H-indazol-4-yl)-7-{4-[(1S,4S)-5-methyl-2,5-diazabicyclo[2.2.1]hept-2-yl]-1-naphthyl}-2-pyridin-4-ylpyrazolo[1,5-a]pyrimidine]"
2,0.134,"CN1C[C@@H]2C[C@H]1CN2c1ccc(-c2ccnc3c(-c4cccc(C(N)=O)c4)c(-c4ccncc4)nn23)cn1 [Example 43, 3-(7-(6-((1S,4S)-5-Methyl-2,5-diazabicyclo[2.2.1]heptan-2-yl)pyridin-3-yl)-2-(pyridin-4-yl)pyrazolo[1,5-a]pyrimidin-3-yl)benzamide]"
3,< 0.0003,"Cc1cc(N2C[C@@H]3C[C@H]2CN3C)ccc1-c1ccnc2c(-c3ccc(F)c4[nH]ncc34)c(-c3ccncc3)nn12 [Example 136, 3-(7-fluoro-1H-indazol-4-yl)-7-{2-methyl-4-[(1S,4S)-5-methyl-2,5-diazabicyclo[2.2.1]hept-2-yl]phenyl}-2-pyridin-4-ylpyrazolo[1,5-a]pyrimidine]"
4,0.0012,"FC(F)(F)c1cc(-c2ccnc3c(-c4cccc5[nH]ncc45)c(-c4ccncc4)nn23)ccc1N1C[C@@H]2C[C@H]1CN2 [Example 157, 7-{4-[(1S,4S)-2,5-diazabicyclo[2.2.1]hept-2-yl]-3-(trifluoromethyl)phenyl}-3-(1H-indazol-4-yl)-2-pyridin-4-ylpyrazolo[1,5-a]pyrimidine]"
5,0.0612,"CN1C[C@@H]2C[C@H]1CN2c1cccc(-c2ccnc3c(-c4cccc5[nH]ncc45)c(-c4ccncc4)nn23)c1 [Example 126, 3-(1H-indazol-4-yl)-7-{3-[(1S,4S)-5-methyl-2,5-diazabicyclo[2.2.1]hept-2-yl]phenyl}-2-pyridin-4-ylpyrazolo[1,5-a]pyrimidine]"
6,< 0.0003,"CN1C[C@@H]2C[C@H]1CN2c1ccc(-c2ccnc3c(-c4cccc5[nH]ncc45)c(-c4ccncc4)nn23)c(Br)c1 [Example 190, 7-{2-bromo-4-[(1S,4S)-5-methyl-2,5-diazabicyclo[2.2.1]hept-2-yl]phenyl}-3-(1H-indazol-4-yl)-2-pyridin-4-ylpyrazolo[1,5-a]pyrimidine]"
7,< 0.0003,"Clc1cc(N2C[C@@H]3C[C@H]2CN3)ccc1-c1ccnc2c(-c3cccc4[nH]ncc34)c(-c3ccncc3)nn12 [Example 97, 7-[2-Chloro-4-((1S,4S)-2,5-diaza-bicyclo[2.2.1]hept-2-yl)-phenyl]-3-(1H-indazol-4-yl)-2-pyridin-4-yl-pyrazolo[1,5-a]pyrimidine bis-hydrochloride salt]"
8,< 0.0003,"CN1C[C@@H]2C[C@H]1CN2c1ccc(-c2ccnc3c(-c4cccc(O)c4)c(-c4ccncc4)nn23)c(Cl)c1 [Example 60, 3-(7-(2-Chloro-4-((1S,4S)-5-methyl-2,5-diazabicyclo[2.2.1]heptan-2-yl)phenyl)-2-(pyridin-4-yl)pyrazolo[1,5-a]pyrimidin-3-yl)phenol]"
9,0.0073,"CN(C)c1cc(N2C[C@@H]3C[C@H]2CN3C)ccc1-c1ccnc2c(-c3cccc4[nH]ncc34)c(-c3ccncc3)nn12 [Example 148, 2-[3-(1H-indazol-4-yl)-2-pyridin-4-ylpyrazolo[1,5-a]pyrimidin-7-yl]-N,N-dimethyl-5-[(1S,4S)-5-methyl-2,5-diazabicyclo[2.2.1]hept-2-yl]aniline]"

# Same assay, conditions: Mean IC50 (uM), B-Raf IC50 Data for compounds of Formula A
row,Molecule,IC50 [µM]
1,"COc1cc(-c2c(-c3ccncc3)nn3c(-c4ccc(N5CC6CCC(C5)N6C)cc4)ccnc23)ccc1Cl [Example 26, 3-(4-Chloro-3-methoxy-phenyl)-7-[4-(8-methyl-3,8-diaza-bicyclo[3.2.1]oct-3-yl)-phenyl]-2-pyridin-4-yl-pyrazolo[1,5-a]pyrimidine]",0.01
